Measured values published in patent publication US20060167104A1, “Method for extracting a novel compound from the root of a plant of the pentadiplandraceae family and use of N,N'-dibenzylthiourea as a medicine” (priority 2002, published 2006).

Legend:
[1] = Toxicity statement
[2] = Fentom method: degradation of deoxyribose by free radicals from xanthine/xanthine oxidase, malondialdehyde measured by colorimetry; format: biochemical; settings: in relation to the control containing no free hydroxyl radical trapper
Procedure: We used the Fentom method. This method is based on the degradation of deoxyribose by free radicals generated by the xanthine/xanthine oxidase system. This degradation leads to the formation of malondialdehyde which is measured by colorimetry.
In this technique, the trapping of free hydroxyl radicals is translated into a decrease in the formation of malondialdehyde.
N,N′-dibenzylthiourea in solutions of concentration 20, 10 and 5% decreases the production of malondialdehyde by 65, 59 and 51% respectively in relation to the control containing no free hydroxyl radical trapper.

## S=C(NCc1ccccc1)NCc1ccccc1 [N,N′-dibenzylthiourea]
[1]
  toxicity: non-toxic
[2]; solution of concentration 5%
  decrease in the production of malondialdehyde: 51%
[2]; solution of concentration 10%
  decrease in the production of malondialdehyde: 59%
[2]; solution of concentration 20%
  decrease in the production of malondialdehyde: 65%
